Laboratory results published in US9669034B2, “4-aryl-N-phenyl-1,3,5-triazin-2-amines containing a sulfoximine group” (BAYER INTELLECTUAL PROPERTY GMBH, priority 2011, dated 2017).
Read-outs that look alike come from different tables or passages of the source.

Assays:
[1] = tested on: B16F10 mouse melanoma cells; test: Proliferation assay (crystal violet), B16F10; format: cell-based; details: Mus musculus, B16-F10, B16F10 cells, Method 3; read-out: Inhibition of B16F10 cell proliferation, IC50
Experimental: (§1) Cultivated tumour cells (NCI-H460, human non-small cell lung carcinoma cells, ATCC HTB-177; DU145, hormone-independent human prostate carcinoma cells, ATCC HTB-81; HeLa-MaTu, human cervical carcinoma cells, EPO-GmbH, Berlin; HeLa-MaTu-ADR, multidrug-resistant human cervical carcinoma cells, EPO-GmbH, Berlin; HeLa human cervical tumour cells, ATCC CCL-2; Caco-2 human colorectal carcinoma, ATCC HTB-37; B16F10 mouse melanoma cells, ATCC CRL-6475) were plated at a density of 5000 cells/well (DU145, HeLa-MaTu-ADR), 3000 cells/well (NCI-H460, HeLa-MaTu, HeLa), 1500 cells/well (Caco-2), or 1000 cells/well (B16 F10) in a 96-well multititer plate in 200 μL of their respective growth medium supplemented 10% fetal calf serum. After 24 hours, the cells of one plate (zero-point plate) were stained with crystal violet (see below), while the medium of the other plates was replaced by fresh culture medium (200 μL), to which the test substances were added in various concentrations (0 M, as well as in the range of […]; the final concentration of the solvent dimethylsulfoxide was 0.5%). The cells were incubated for 4 days in the presence of test substances. Cell proliferation was determined by staining the cells with crystal violet: the cells were fixed by adding 20 μL/measuring point of an 11% glutaric aldehyde solution for 15 minutes at room temperature. After three washing cycles of the fixed cells with water, the plates were dried at room temperature. The cells were stained by adding 100 μL/measuring point of a 0.1% crystal violet solution (pH 3.0). After three washing cycles of the stained cells with water, the plates were dried at room temperature. The dye was dissolved by adding 100 μL/measuring point of a 10% acetic acid solution. The absorbance was determined by photometry at a wavelength of 595 nm. The change of cell number, in percent, was calculated by normalization of the measured values to the absorbance values of the zero-point plate (=0%) and the absorbance of the untreated (0 M) cells (=100%). The IC50 values were determined by means of a 4 parameter fit.

[2] = target: CDK9/CycT1 (Homo sapiens (Human), UniProt P50750); test: CDK9/CycT1 kinase assay (TR-FRET); format: biochemical; details: Method 1
Sequence of CDK9/CycT1 (P50750 whole entry): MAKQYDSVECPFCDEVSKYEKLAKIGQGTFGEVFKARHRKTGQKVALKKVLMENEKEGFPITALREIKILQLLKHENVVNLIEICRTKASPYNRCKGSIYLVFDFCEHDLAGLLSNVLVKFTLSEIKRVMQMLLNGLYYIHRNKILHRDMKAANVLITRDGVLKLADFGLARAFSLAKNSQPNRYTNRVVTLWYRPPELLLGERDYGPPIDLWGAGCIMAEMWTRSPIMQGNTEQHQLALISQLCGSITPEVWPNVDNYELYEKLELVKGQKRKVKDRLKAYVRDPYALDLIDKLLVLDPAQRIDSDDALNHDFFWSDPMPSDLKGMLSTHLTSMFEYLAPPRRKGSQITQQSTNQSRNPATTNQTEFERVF
Sequence of CDK9/CycT1 (O60563 whole entry partner): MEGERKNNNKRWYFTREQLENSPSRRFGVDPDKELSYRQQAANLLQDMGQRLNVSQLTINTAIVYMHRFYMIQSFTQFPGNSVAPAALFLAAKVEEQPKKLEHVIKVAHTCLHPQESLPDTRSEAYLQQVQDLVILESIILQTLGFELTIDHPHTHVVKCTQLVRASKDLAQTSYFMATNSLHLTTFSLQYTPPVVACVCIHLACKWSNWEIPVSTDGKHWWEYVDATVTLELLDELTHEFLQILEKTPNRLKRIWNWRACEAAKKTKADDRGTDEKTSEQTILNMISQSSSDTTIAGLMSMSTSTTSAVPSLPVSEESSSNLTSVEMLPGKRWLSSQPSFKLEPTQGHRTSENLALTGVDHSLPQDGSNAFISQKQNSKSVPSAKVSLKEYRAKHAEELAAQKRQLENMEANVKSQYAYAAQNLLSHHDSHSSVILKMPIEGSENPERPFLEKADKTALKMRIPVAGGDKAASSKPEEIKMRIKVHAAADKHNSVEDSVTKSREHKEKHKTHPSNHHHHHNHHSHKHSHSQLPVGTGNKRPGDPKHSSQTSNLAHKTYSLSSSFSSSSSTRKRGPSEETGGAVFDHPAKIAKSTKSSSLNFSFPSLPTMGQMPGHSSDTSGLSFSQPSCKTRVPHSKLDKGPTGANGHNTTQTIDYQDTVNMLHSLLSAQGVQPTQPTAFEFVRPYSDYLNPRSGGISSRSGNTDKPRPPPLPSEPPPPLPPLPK
From the text: 1. CDK9/CycT1 Kinase Assay:
CDK9/CycT1—inhibitory activity of compounds of the present invention was quantified employing the CDK9/CycT1 TR-FRET assay as described in the following paragraphs:
Recombinant full-length His-tagged human CDK9 and CycT1, expressed in insect cells and purified by Ni-NTA affinity chromatography, were purchased from Invitrogen (Cat. No PV4131). As substrate for the kinase reaction biotinylated peptide biotin-Ttds-[…]

[3] = target: CDK2/CycE (Homo sapiens (Human), UniProt P24941); test: CDK2/CycE kinase assay (TR-FRET); format: biochemical; details: Method 2
From the text: 2. CDK2/CycE Kinase Assay:
CDK2/CycE—inhibitory activity of compounds of the present invention was quantified employing the CDK2/CycE TR-FRET assay as described in the following paragraphs:
Recombinant fusion proteins of GST and human CDK2 and of GST and human CycE, expressed in insect cells (Sf9) and purified by Glutathion-Sepharose affinity chromatography, were purchased from ProQinase GmbH (Freiburg, Germany). As substrate for the kinase reaction biotinylated peptide biotin-Ttds-[…]

[4] = tested on: DU145, hormone-independent human prostate carcinoma cells; test: Proliferation assay (crystal violet), DU145; format: cell-based; details: Homo sapiens, DU-145, DU145 cells, Method 3; read-out: Inhibition of DU145 cell proliferation, IC50
Experimental: as §1

[5] = tested on: HeLa-MaTu-ADR, multidrug-resistant human cervical carcinoma cells; test: Proliferation assay (crystal violet), HeLa-MaTu-ADR; format: cell-based; details: Homo sapiens, HeLa, Method 3, read-out: Inhibition of HeLa/MaTu/ADR cell proliferation, IC50
Experimental: as §1

[6] = tested on: NCI-H460, human non-small cell lung carcinoma cells; test: Proliferation assay (crystal violet), NCI-H460; format: cell-based; details: Homo sapiens, NCI-H460, NCI-H460 cells, Method 3; read-out: Inhibition of NCI-H460 cell proliferation, IC50
Experimental: as §1

[7] = tested on: Caco-2 human colorectal carcinoma; test: Proliferation assay (crystal violet), Caco-2; format: cell-based; details: Homo sapiens, Caco-2, Caco-2 cells, Method 3; read-out: Inhibition of Caco-2 cell proliferation, IC50
Experimental: as §1

[8] = tested on: HeLa human cervical tumour cells; test: Proliferation assay (crystal violet), HeLa; format: cell-based; details: Method 3, read-out: Inhibition of HeLa cell proliferation, IC50
Experimental: as §1

SMILES	IC50 [1] [nM]	IC50 [2] [nM]	IC50 [3] [nM]	IC50 [4] [nM]	IC50 [5] [nM]	IC50 [6] [nM]	IC50 [7] [nM]	IC50 ([8]; Homo sapiens, HeLa) [nM]	IC50 [8] [nM]
CCOC(=O)N=S(C)(=O)Cc1cccc(Nc2ncnc(-c3cc(F)c(F)cc3OC)n2)c1 (racemic) [Example 9, (rac)-Ethyl [(3-{[4-(4,5-difluoro-2-methoxyphenyl)-1,3,5-triazin-2-yl]amino}benzyl)(methyl)oxido-λ^6-sulfanylidene]carbamate]	1000	8	690	900	960	980	800		
CNC(=O)N=S(C)(=O)Cc1cccc(Nc2ncnc(-c3ccc(F)cc3OC)n2)c1 (racemic) [Example 15, (rac)-1-[(3-{[4-(4-Fluoro-2-methoxyphenyl)-1,3,5-triazin-2-yl]amino}benzyl)(methyl)oxido-λ^6-sulfanylidene]-3-methylurea]	620	7	930	370	940	1000	1000	390	
COc1cc(F)ccc1-c1ncnc(Nc2cccc(CS(C)(=O)=NC(C)=O)c2)n1 (racemic) [Example 24, (rac)-N-[(3-{[4-(4-fluoro-2-methoxyphenyl)-1,3,5-triazin-2-yl]amino}benzyl)(methyl)oxido-λ^6-sulfanylidene]acetamide]	940	11	1800	680	520	760	710	490	
CCOC(=O)N=S(C)(=O)Cc1cccc(Nc2ncnc(-c3cccc4c3OCCC4)n2)c1 (racemic) [Example 29, (rac)-Ethyl [(3-{[4-(3,4-dihydro-2H-chromen-8-yl)-1,3,5-triazin-2-yl]amino}benzyl)(methyl)oxido-λ^6-sulfanylidene]carbamate]	960	13	1200	540	760	720	760	510	
CCOC(=O)N=S(C)(=O)Cc1cccc(Nc2ncnc(-c3cccc4c3OCCO4)n2)c1 (racemic) [Example 37, (rac)-Ethyl [(3-{[4-(2,3-dihydro-1,4-benzodioxin-5-yl)-1,3,5-triazin-2-yl]amino}benzyl)(methyl)oxido-λ^6-sulfanylidene]carbamate]	720	9	2300	500	750	920	810	630	
CCOC(=O)N=S(C)(=O)Cc1cccc(Nc2ncnc(-c3ccccc3OCc3ccc(F)cc3)n2)c1 (racemic) [Example 42, (rac)-Ethyl [{3-[(4-{2-[(4-fluorobenzyl)oxy]phenyl}-1,3,5-triazin-2-yl)amino]benzyl}(methyl)oxido-λ^6-sulfanylidene]carbamate]	680	5	1600	590	520	370	680	610	
CS(=N)(=O)Cc1cccc(Nc2ncnc(-c3ccccc3OCc3ccc(F)cc3)n2)c1 (racemic) [Example 43, (rac)-4-{2-[(4-Fluorobenzyl)oxy]phenyl}-N-{3-[(S-methylsulfonimidoyl)methyl]phenyl}-1,3,5-triazin-2-amine]	800	9	1900	800	1100	530	1100	590	
CCOC(=O)N=S(C)(=O)Cc1cc(F)cc(Nc2ncnc(-c3ccc(F)cc3OC)n2)c1 (racemic) [Example 51, (rac)-Ethyl [(3-fluoro-5-{[4-(4-fluoro-2-methoxyphenyl)-1,3,5-triazin-2-yl]amino}benzyl)(methyl)oxido-λ^6-sulfanylidene]carbamate]	340		430	240	240	230	290	300	
COc1cc(F)ccc1-c1ncnc(Nc2cc(F)cc(CS(C)(=N)=O)c2)n1 (racemic) [Example 52, (rac)-4-(4-Fluoro-2-methoxyphenyl)-N-{3-fluoro-5-[(S-methylsulfonimidoyl)methyl]phenyl}-1,3,5-triazin-2-amine]	550		1000	340	140	650	690	410	
CS(=N)(=O)Cc1cccc(Nc2ncnc(-c3ccc(F)cc3OCC3CCCCC3)n2)c1 (racemic) [Example 55, (rac)-4-[2-(Cyclohexylmethoxy)-4-fluorophenyl]-N-{3-[(S-methylsulfonimidoyl)methyl]phenyl}-1,3,5-triazin-2-amine]		10	2200	990	850	980	890	1000	
CS(=N)(=O)Cc1cccc(Nc2ncnc(-c3ccc(F)cc3OCCCC(F)(F)F)n2)c1 (racemic) [Example 100, (rac)-4-[4-Fluoro-2-(4,4,4-trifluorobutoxy)phenyl]-N-{3-[(S-methylsulfonimidoyl)methyl]phenyl}-1,3,5-triazin-2-amine]		6	1300					920	
CS(=N)(=O)Cc1cccc(Nc2ncnc(-c3ccc(F)cc3OCc3cc(F)c(F)cc3F)n2)c1 (racemic) [Example 103, (rac)-4-{4-Fluoro-2-[(2,4,5-trifluorobenzyl)oxy]phenyl}-N-{3-[(S-methylsulfonimidoyl)methyl]phenyl}-1,3,5-triazin-2-amine]		7	1200					1100	
CCS(=N)(=O)Cc1cccc(Nc2ncnc(-c3ccc(F)cc3OC)n2)c1 (racemic) [Example 108, (rac)-N-{3-[(S-ethylsulfonimidoyl)methyl]phenyl}-4-(4-fluoro-2-methoxyphenyl)-1,3,5-triazin-2-amine]		8	1000					1000	
COc1cc(F)ccc1-c1ncnc(Nc2ccc(Cl)c(CS(C)(=N)=O)c2)n1 (single isomer, unassigned) [Example 59.a, N-{4-Chloro-3-[(S-methylsulfonimidoyl)methyl]phenyl}-4-(4-fluoro-2-methoxyphenyl)-1,3,5-triazin-2-amine]		25	2900					1100	
COc1cc(F)ccc1-c1ncnc(Nc2ccc(Cl)c(CS(C)(=N)=O)c2)n1 (single isomer, unassigned) [Example 59.b, N-{4-Chloro-3-[(S-methylsulfonimidoyl)methyl]phenyl}-4-(4-fluoro-2-methoxyphenyl)-1,3,5-triazin-2-amine]		33	1800						1100
